Experimental data: patent US4987140A, “Pyridines” (Roussel Uclaf, priority 1987, dated 1991)

Tested on: chronic-arthritis with adjuvant (increase in volume of the rear paws)
Test: Anti-inflammatory activity: chronic-arthritis with adjuvant (preventative treatment)
Format: in vivo, rat
Conditions: male rats aged 42 to 50 days, intra-plantar Freund type adjuvant, product orally from day 0 up to the day before killing (day 17), 24480 min
Protocol: Anti-inflammatory activity: chronic-arthritis with adjuvant (preventative treatment)
In the rat, the injection of Freund type adjuvant in a rear paw causes the rapid appearance of a primary inflammatory lesion in this paw and then, after a latency period of 13 to 15 days, the start up of a secondary arthritic affection, particularly in the other rear paw. The test was carried out on male rats aged 42 to 50 days which received an intra-plantar injection of 0.1 ml of "Freund" type adjuvant (suspension in vaseline oil of 6 mg per ml of killed mycobacterium butyricum). The animals received the product orally from day 0 (day of injection of adjuvant) up to the day before they were killed, which occured on day 17. Control arthritic animals and control normal animals received only the vehicle. The criteria of appreciation of the activity of the substances studied was the increases in volume of the injected rear paws (primary and secondary inflammation) and the non-injected ones (secondary inflammation)by comparison with the average volume of the corresponding paws of normal controls. The DA50 was determined, that is to say, the dose which reduced by 50% the increase in volume of the rear paws of the treated animals in comparison with the control animals.

Compound | DA50 (dose which reduced by 50% the increase in volume of the rear paws of the treated animals in comparison with the control animals)
Cc1c(-c2ccccc2)nc(C(F)(F)F)c(C(=O)Nc2nccs2)c1O [Example 1, 4-hydroxy-5-methyl-6-phenyl-N-(2-thiazolyl)-2-trifluoromethyl-3-pyridine carboxamide] | 0.3 mg/k
O=C(Nc1nccs1)c1c(C(F)(F)F)nc(-c2ccccc2)c(-c2ccccc2)c1O [Example 3, 5,6-diphenyl-4-hydroxy-N-(2-thiazolyl)-2-trifluoromethyl-3-pyridine carboxamide] | 15 mg/k
